The text below walks through data of patent US20070254863A1 (priority 2006, published 2007).

The target in one experiment is T1, hamster SUR1 (Cricetus cricetus, UniProt Q09427).
T1 construct: expressed in transfected cells; host or cells: COS-1 cells, transient (pcDNA vector)
In words: In vitro binding affinity to rodent KATP channels: SUR1 ([3H]glibenclamide displacement, COS cell membranes). The conditions noted are these: hamster SUR1 in COS cell membranes; read-out: Affinity to SUR 1 (converted). Here is the method: 1. In Vitro Binding Affinity of the Test Compounds to Rodent KATP Channels
Competitive binding experiments were performed to characterize the affinity of the test compounds for the binding sites for sulfonylureas and KATP channel openers (KCOS) on hamster SUR1. To assess the affinity for the sulfonylurea site, membranes from COS-cells transiently expressing hamster SUR1 were incubated in the presence of [^3H]glibenclamide with increasing concentrations of test compounds. […] For each test compound four displacement curves were measured (+/−MgATP from the human and hamster isoform). Per curve 9-15 distinct concentrations were tested covering the relevant range. All measurements were repeated at least 5 times in independent experiments.
(§1) [^3H]glibenclamide (specific activity 51 Ci mmol^−1) was obtained from NEN (Dreieich, Germany). Where needed, stock solutions were prepared in dimethylsulfoxide with a final solvent concentration in the media below 1%.
(§2) SUR- or Kir6.x isoforms were used either subcloned in the pcDNA (hamster SUR1, mouse Kir6.2) or pCMV vector (rat SUR2A, SUR2B).
(§3) For transfection, the cells were incubated 4 hours in a Tris-buffered salt solution containing DNA (5-10 μg/ml) plus DEAE-dextran (1 mg/ml), 2 min in HEPES-buffered salt solution plus dimethylsulfoxide (10%) and 4 hours in DMEM-HG plus chloroquine (100 μM). Cells were then returned to DMEM-HG plus 10% FCS. […] For binding experiments, resuspended membranes (final protein concentration 5-50 μg/ml) were incubated in “Tris-buffer” (50 mM, pH 7.4) containing either [^3H]glibenclamide (final concentration 0.3 nM or 3 nM and nonspecific binding defined by 100 nM or 1 μM glibenclamide for SUR1 or SUR2Y1205S-isoforms, respectively) or [^3H]P1075 (final concentration 3 nM, nonspecific binding defined by 100 μM pinacidil) and increasing concentrations of the test compounds. The free Mg^2+ concentration were kept close to 0.7 mM. […] Incubations were carried out for 1 h at room temperature and were terminated by rapid filtration through Whatman GF/B filters.
(§4) The inhibition constant (Ki value) of the test substances was calculated from the respective IC50 value, and was stated as the negative logarithmic value thereof (pKi).

Another experiment has as its target rat SUR2A (Rattus norvegicus, UniProt Q63563). In words: In vitro binding affinity to rodent KATP channels: SUR2A ([3H]P1075 / [3H]glibenclamide displacement, COS cell membranes). Here is the method:
Therefore, two strategies can be used to detect binding to the sulfonylurea site on SUR2A.
Membranes from COS-cells transiently expressing rat SUR2A were incubated in the presence of the radioligands with increasing concentrations of test compounds as described above. […] For each test compound four displacement curves were measured (displacement of [^3H]P1075 from the rat isoform of the wild type receptor and displacement of [^3H]glibenclamide from the rat isoform of SUR2AY1205S). Per curve 9-15 distinct concentrations were tested covering the relevant range. All measurements were repeated at least 5 times in independent experiments.
as §1, §2, §3, §4

Setting [1] is: rat SUR2A in COS cell membranes.

Molecules are shown by their SMILES. Read-outs that look alike come from different tables or passages of the source.

Chain of rat SUR2A (Q63563 whole entry): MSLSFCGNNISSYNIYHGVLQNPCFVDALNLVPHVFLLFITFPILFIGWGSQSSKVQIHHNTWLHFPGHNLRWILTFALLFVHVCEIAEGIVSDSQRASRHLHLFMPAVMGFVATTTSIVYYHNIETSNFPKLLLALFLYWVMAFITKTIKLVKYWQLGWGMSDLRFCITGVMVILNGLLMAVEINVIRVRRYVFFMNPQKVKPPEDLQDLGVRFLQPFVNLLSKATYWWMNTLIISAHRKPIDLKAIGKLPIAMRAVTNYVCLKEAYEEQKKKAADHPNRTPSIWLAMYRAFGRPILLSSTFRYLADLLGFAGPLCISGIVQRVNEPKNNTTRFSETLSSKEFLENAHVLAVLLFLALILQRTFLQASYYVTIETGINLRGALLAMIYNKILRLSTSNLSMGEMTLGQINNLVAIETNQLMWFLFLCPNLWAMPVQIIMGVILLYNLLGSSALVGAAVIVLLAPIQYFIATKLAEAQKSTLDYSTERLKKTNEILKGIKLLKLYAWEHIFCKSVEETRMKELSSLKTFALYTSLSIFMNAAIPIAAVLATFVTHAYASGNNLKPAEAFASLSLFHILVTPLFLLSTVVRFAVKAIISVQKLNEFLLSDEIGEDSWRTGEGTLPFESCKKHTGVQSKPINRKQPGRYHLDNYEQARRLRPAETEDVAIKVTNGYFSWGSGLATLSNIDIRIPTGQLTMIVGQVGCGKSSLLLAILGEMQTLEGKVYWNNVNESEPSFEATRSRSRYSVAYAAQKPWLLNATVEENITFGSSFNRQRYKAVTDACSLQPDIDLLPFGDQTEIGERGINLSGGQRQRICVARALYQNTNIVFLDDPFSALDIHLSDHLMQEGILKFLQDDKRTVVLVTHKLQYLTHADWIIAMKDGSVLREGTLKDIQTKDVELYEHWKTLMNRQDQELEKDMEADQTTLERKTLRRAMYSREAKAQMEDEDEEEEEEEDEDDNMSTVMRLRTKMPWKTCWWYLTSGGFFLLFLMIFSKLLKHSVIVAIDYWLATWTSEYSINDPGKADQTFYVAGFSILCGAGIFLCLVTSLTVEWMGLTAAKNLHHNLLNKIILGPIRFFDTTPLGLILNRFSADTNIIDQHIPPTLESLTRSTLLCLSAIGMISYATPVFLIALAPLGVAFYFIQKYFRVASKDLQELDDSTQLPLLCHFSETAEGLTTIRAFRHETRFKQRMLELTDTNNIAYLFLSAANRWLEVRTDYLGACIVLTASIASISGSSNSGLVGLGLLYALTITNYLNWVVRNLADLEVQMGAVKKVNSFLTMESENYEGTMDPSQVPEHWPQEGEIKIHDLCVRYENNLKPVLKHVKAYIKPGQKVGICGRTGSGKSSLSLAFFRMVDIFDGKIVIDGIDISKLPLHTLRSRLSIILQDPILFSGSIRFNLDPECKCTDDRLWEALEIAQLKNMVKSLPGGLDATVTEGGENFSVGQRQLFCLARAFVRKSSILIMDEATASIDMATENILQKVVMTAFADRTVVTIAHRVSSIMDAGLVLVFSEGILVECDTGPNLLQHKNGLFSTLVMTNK
T1 sequence (Q09427 whole entry): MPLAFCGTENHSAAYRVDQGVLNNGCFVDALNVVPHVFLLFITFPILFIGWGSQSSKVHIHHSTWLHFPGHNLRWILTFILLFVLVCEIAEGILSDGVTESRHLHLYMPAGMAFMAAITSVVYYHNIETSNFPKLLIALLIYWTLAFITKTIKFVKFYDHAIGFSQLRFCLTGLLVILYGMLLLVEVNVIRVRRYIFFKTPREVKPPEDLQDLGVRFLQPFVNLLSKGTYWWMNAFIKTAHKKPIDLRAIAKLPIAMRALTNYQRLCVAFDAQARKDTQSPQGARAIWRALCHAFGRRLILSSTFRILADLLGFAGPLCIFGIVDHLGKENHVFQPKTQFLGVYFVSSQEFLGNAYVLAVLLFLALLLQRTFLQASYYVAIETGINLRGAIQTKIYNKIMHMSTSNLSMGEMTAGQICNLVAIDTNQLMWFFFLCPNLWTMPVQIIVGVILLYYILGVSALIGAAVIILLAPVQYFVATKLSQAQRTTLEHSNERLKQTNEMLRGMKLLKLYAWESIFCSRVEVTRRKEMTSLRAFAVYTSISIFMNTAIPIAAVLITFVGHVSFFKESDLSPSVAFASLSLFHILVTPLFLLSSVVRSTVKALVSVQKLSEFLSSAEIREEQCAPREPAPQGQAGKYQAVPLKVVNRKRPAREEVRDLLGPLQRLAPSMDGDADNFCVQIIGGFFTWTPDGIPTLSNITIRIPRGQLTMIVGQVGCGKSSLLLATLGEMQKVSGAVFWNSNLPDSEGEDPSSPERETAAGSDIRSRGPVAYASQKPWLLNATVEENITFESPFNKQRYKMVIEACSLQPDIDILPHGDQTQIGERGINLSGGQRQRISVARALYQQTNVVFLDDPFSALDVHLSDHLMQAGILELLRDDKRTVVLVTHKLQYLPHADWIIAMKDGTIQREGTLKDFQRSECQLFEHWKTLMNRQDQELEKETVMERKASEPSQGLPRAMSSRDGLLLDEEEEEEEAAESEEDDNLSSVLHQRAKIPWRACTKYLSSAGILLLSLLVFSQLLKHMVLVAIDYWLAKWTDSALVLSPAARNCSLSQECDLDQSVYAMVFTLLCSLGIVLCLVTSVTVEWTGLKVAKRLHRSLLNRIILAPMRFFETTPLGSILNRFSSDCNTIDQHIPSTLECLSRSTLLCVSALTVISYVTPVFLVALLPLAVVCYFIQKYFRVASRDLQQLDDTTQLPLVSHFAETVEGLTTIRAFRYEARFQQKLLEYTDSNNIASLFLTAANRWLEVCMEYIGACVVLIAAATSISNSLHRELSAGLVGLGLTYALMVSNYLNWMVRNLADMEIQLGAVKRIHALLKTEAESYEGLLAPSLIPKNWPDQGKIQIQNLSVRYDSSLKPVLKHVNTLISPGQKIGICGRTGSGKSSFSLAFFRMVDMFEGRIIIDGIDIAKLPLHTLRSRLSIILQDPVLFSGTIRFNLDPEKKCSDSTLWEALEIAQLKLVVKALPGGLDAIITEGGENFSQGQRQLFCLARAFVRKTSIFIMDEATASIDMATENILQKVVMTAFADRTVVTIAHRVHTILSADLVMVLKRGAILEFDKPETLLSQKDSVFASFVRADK

As to `CS(=O)(=O)C(=C1CN(C(c2ccc(Cl)cc2)c2ccc(Cl)cc2)C1)c1cc(F)cc(F)c1` [1-[Bis-(4-chloro-phenyl)-methyl]-3-[(3,5-difluoro-phenyl)-methanesulfonyl-methylene]-azetidine, reference compound], at hamster SUR1, the Ki is 5.01 µM. This compound also displayed a pKi at rat SUR2A of 5.1.

Consider `NC(=O)C1CCN(C(=NS(=O)(=O)c2ccc(Cl)cc2)N2CC(c3ccccc3)C(c3ccc(Cl)cc3)=N2)CC1` (centres unmarked) [1-{(4-Chloro-benzene-sulfonylimino)-[3-(4-chloro-phenyl)-4-phenyl-4,5-dihydro-pyrazol-1-yl]-methyl}-piperidine-4-carboxylic acid amide], for which, on hamster SUR1, the Ki was 3.16 µM. This compound displayed a pKi on rat SUR2A of 5.2.

In the case of `O=C(NN1CCCCC1)c1cn(-c2ccc(C(F)(F)F)cc2)c(-c2ccc(Cl)cc2Cl)n1` [2-(2,4-Dichloro-phenyl)-1-(4-trifluoromethyl-phenyl)-1H-imidazole-4-carboxylic acid piperidin-1-ylamide], at hamster SUR1, the Ki was 2.51 µM. This compound had a pKi on rat SUR2A of 5.3.

With `O=C(NN1CCCCC1)c1cn(-c2ccc(C(F)(F)F)cc2)c(-c2ccccc2Cl)n1` [2-(2-Chloro-phenyl)-1-(4-trifluoromethyl-phenyl)-1H-imidazole-4-carboxylic acid piperidin-1-ylamide], the Ki on hamster SUR1 was 1 µM. On rat SUR2A, this compound had a pKi of 5.7.

Turning to `CCc1c(C(=O)NN2CCCCC2)nc(-c2ccccc2Cl)n1-c1ccc(Cl)cn1` [2-(2-Chloro-phenyl)-1-(5-chloro-pyridin-2-yl)-5-ethyl-1H-imidazole-4-carboxylic acid piperidin-1-ylamide], the Ki on hamster SUR1 was 100 µM. On rat SUR2A, this compound showed a pKi of 4.8.

In the case of `CCCCC(C)(O)c1nc(-c2ccc(Cl)cc2Cl)n(-c2ccc(Cl)cc2)c1C` (centres unmarked) [2-[1-(4-Chloro-phenyl)-2-(2,4-dichloro-phenyl)-5-methyl-1H-imidazol-4-yl]-hexan-2-ol], the Ki on hamster SUR1 is 1.58 µM. For the same compound, on rat SUR2A, the pKi is reported as 5.3.

Regarding `CCC1CN=C(N2CC(c3ccccc3)C(c3ccc(Cl)cc3)=N2)O1` (centres unmarked) [2-[3-(4-Chloro-phenyl)-4-phenyl-4,5-dihydro-pyrazol-1-yl]-5-ethyl-4,5-dihydro-oxazole], the Ki on hamster SUR1 was 3.16 µM. Moreover, the pKi on rat SUR2A worked out at 4.4.

Take `Cn1c(C(=O)NC2CCCCC2)nc(-c2ccc(Cl)cc2)c1-c1ccc(Cl)cc1Cl` [4-(4-Chloro-phenyl)-5-(2,4-dichloro-phenyl)-1-methyl-1H-imidazole-2-carboxylic acid cyclohexylamide]: on hamster SUR1, the Ki is 100 µM. Further, the pKi at rat SUR2A (setting [1]) was determined as 4.7.

Turning to `O=C(NS(=O)(=O)c1ccc(Cl)cc1)N1CC(c2ccccc2)C(c2ccc(Cl)cc2)=N1` (centres unmarked) [4-Chloro-N-[3-(4-chloro-phenyl)-4-phenyl-4,5-dihydro-pyrazole-1-carbonyl]-benzenesulfonamide], the Ki at hamster SUR1 is 3.16 µM. The pKi on rat SUR2A came to 4.8.

`N#CCCNC(=NS(=O)(=O)c1ccc(Cl)cc1)N1CC(c2ccccc2)C(c2ccc(Cl)cc2)=N1` (centres unmarked) [4-Chloro-N-[[3-(4-chloro-phenyl)-4-phenyl-4,5-dihydro-pyrazol-1-yl]-(2-cyano-ethylamino)-methylene]-benzene sulfonamide]: the Ki on hamster SUR1 is 0.2 µM. This compound also showed a pKi at rat SUR2A of 5.9.

As to `CCNCCN/C(=N\S(=O)(=O)c1ccc(Cl)cc1)N1CC(c2ccccc2)C(c2ccc(Cl)cc2)=N1` (centres unmarked) [4-Chloro-N-[[3-(4-chloro-phenyl)-4-phenyl-4,5-dihydro-pyrazol-1-yl]-(2-ethylamino-ethylamino)-methylene]-Benzenesulfonamide], the Ki on hamster SUR1 is 7.94 µM. For the same compound, the pKi at rat SUR2A is reported as 5.3.

Turning to `O=S(=O)(N=C(NCCCCN1CCCC1)N1CC(c2ccccc2)C(c2ccc(Cl)cc2)=N1)c1ccc(Cl)cc1` (centres unmarked) [4-Chloro-N-[[3-(4-chloro-phenyl)-4-phenyl-4,5-dihydro-pyrazol-1-yl]-(4-pyrrolidin-1-yl-butylamino)-methylene]-benzenesulfonamide], the Ki at hamster SUR1 was 50.1 µM. For the same compound, the pKi on rat SUR2A is reported as 5.4.

For the compound `CON(C)C(=NS(=O)(=O)c1ccc(Cl)cc1)N1CC(c2ccccc2)C(c2ccc(Cl)cc2)=N1` (centres unmarked) [4-Chloro-N-[[3-(4-chloro-phenyl)-4-phenyl-4,5-dihydro-pyrazol-1-yl]-(methoxy-methyl-amino)-methylene]-benzenesulfonamide], on hamster SUR1, the Ki is 1.26 µM. The same compound had a pKi at rat SUR2A of 5.9.

On to `O=S(=O)(N=C(NC1CCNCC1)N1CC(c2ccccc2)C(c2ccc(Cl)cc2)=N1)c1ccc(Cl)cc1` (centres unmarked) [4-Chloro-N-[[3-(4-chloro-phenyl)-4-phenyl-4,5-dihydro-pyrazol-1-yl]-(piperidin-4-ylamino)-methylene]-benzenesulfonamide], for which the Ki on hamster SUR1 is 31.6 µM. Moreover, the pKi at rat SUR2A was 4.6.

Turning to `CON/C(=N\S(=O)(=O)c1ccc(Cl)cc1)N1C[C@H](c2cccc(F)c2)C(c2ccc(Cl)cc2)=N1` [4-Chloro-N-{[3-(4-chloro-phenyl)-4-(3-fluoro-phenyl)-4,5-dihydro-pyrazol-1-yl]-methoxyamino-methylene}-benzenesulfonamide], the Ki at hamster SUR1 is 2.51 µM. The pKi at rat SUR2A was determined as 6.1.

As for `N#Cc1cc(-c2ccc(Br)cc2)n(-c2ccc(Cl)cc2Cl)n1` [5-(4-Bromo-phenyl)-1-(2,4-dichloro-phenyl)-1H-pyrazole-3-carbonitrile], at hamster SUR1, the Ki was 100 µM. In addition, the pKi on rat SUR2A stood at 5.4.

`O=C(NN1CCCC1)c1nc(-c2ccc(Cl)cc2)n(-c2ccc(Cl)cc2Cl)n1` [5-(4-Chloro-phenyl)-1-(2,4-dichloro-phenyl)-1H-[1,2,4]triazole-3-carboxylic acid pyrrolidin-1-ylamide]: on hamster SUR1, the Ki was 100 µM. The same compound registered a pKi on rat SUR2A of 4.4.

For the compound `O=C(NN1CCCCC1)c1nc(-c2ccc(Cl)cc2Cl)c(-c2ccc(Cl)cc2)s1` [5-(4-Chloro-phenyl)-4-(2,4-dichloro-phenyl)-thiazole-2-carboxylic acid piperidin-1-ylamide], the Ki on hamster SUR1 was 2 µM. The pKi on rat SUR2A is 5.5.

In the case of `CN/C(=N\S(=O)(=O)N1CCCCCC1)N1CC(c2ccccc2)C(c2ccc(Cl)cc2)=N1` (centres unmarked) [Azepane-1-sulfonic acid [3-(4-chloro-phenyl)-4-phenyl-4,5-dihydro-pyrazol-1-yl]-methylamino-methyleneamide], at hamster SUR1, the Ki is 25.1 µM. This compound also had a pKi at rat SUR2A of 4.9.

On to `CNC(=NS(=O)(=O)N1CCOCC1)C1=NN(c2ccc(Cl)cc2Cl)C(c2ccccc2)C1` (centres unmarked) [Morpholine-4-sulfonic acid [1-(2,4-dichloro-phenyl)-5-phenyl-4,5-dihydro-1H-pyrazol-3-yl]-methylamino-methyleneamide], for which the Ki at hamster SUR1 is 5.01 µM. For the same compound, at rat SUR2A, the negative logarithm of the Ki (pKi) is given as 5.0.

Turning to `CCN(CC)S(=O)(=O)N=C(NC)N1CC(O)(c2ccccc2)C(c2ccc(Cl)cc2)=N1` (centres unmarked) [N,N-Diethylamino-1-sulfonic acid [3-(4-chloro-phenyl)-4-hydroxy-4-phenyl-4,5-dihydro-pyrazol-1-yl]-methylamino-methyleneamide], the Ki at hamster SUR1 is 100 µM. In addition, the pKi on rat SUR2A was 5.9.

Take `CCN(CC)S(=O)(=O)N=C(SC)N1CC(c2ccccc2)C(c2ccc(Cl)cc2)=N1` (centres unmarked) [N,N-Diethylamino-1-sulfonic acid [3-(4-chloro-phenyl)-4-phenyl-4,5-dihydro-pyrazol-1-yl]-methylsulfanyl-methyleneamide]: at hamster SUR1, the Ki was 100 µM. At rat SUR2A, this compound returned a pKi of 4.7.

For `CN(C)S(=O)(=O)N=C(NCCF)N1CC(c2ccccc2)C(c2ccc(Cl)cc2)=N1` (centres unmarked) [N,N-Dimethylamino-1-sulfonic acid [3-(4-chloro-phenyl)-4-phenyl-4,5-dihydro-pyrazol-1-yl]-(2-fluoro-ethylamino)-methyleneamide], at hamster SUR1, the Ki is 50.1 µM. Moreover, the pKi on rat SUR2A was found to be 4.0.

In the case of `CCCCCc1nc(C(=O)NC23CC4CC(CC(C4)C2)C3)sc1-c1ccccc1` [N-Adamantyl-4-pentyl-5-phenyl-thiazole-2-carboxamide], on hamster SUR1, the Ki is 100 µM. Moreover, on rat SUR2A (setting [1]), the pKi was determined as 4.0.

In the case of `CNC(=NS(=O)(=O)c1ccc(C(F)(F)F)cc1)N1CC(c2ccccc2)C(c2ccc(Cl)cc2)=N1` (centres unmarked) [N-{[3-(4-Chloro-phenyl)-4-phenyl-4,5-dihydro-pyrazol-1-yl]-methylamino-methylene}-4-trifluoromethyl-benzene-sulfonamide], on hamster SUR1, the Ki was 0.501 µM. The compound further registered a pKi at rat SUR2A of 4.2.
